# Results taken from patent US10485235B2, “Aryloxypyrimidinyl ethers as herbicides” (FMC Corporation, priority 2015, dated 2019).
# Columns and labels:
# Format in all cases: in vivo
# [1] = tested on: barnyardgrass (Echinochloa crus-galli); assay: Test B flooded paddy test, barnyardgrass; conditions: 250 g ai/ha, Flood; visual rating after 13 to 15 days; scale 0 to 100, 0 is no effect, 100 is complete control
# Summary of the method: (§1)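 Seedlings at the 2-leaf stage are flooded to 3 cm and treated via the paddy water. Greenhouse plants are compared with controls after 13 to 15 days and given a 0 (no effect) to 100 (complete control) rating.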
# [2] = tested on: galium (catchweed bedstraw, Galium aparine); assay: Test A postemergence, galium; conditions: postemergence, 0 to 100 scale, 0 is no effect, 100 is complete control, approximately 10 days
# Summary of the method: (§2)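 Planted seeds in loam soil mixed with sand; sprayed soil directly (pre). Grew seedlings to one- to two-leaf stage, 2–10 cm; sprayed foliage (post). Held in greenhouse ~10 days. Rated injury visually vs untreated controls, 0–100.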
# [3] = tested on: ragweed (common ragweed, Ambrosia elatior); assay: Test A preemergence, ragweed; conditions: Preemergence, 0 to 100 scale (0 no effect, 100 complete control)
# Summary of the method: as §2
# [4] = tested on: barnyardgrass (Echinochloa crus-galli); assay: Test A postemergence, barnyardgrass; conditions: postemergence, 0 to 100 scale, 0 is no effect, 100 is complete control, approximately 10 days
# Summary of the method: as §2
# [5] = tested on: ragweed (common ragweed, Ambrosia elatior); assay: Test A postemergence, ragweed; conditions: postemergence, 0 to 100 scale, 0 is no effect, 100 is complete control, approximately 10 days
# Summary of the method: as §2
# [6] = tested on: foxtail, giant (giant foxtail, Setaria faberii); assay: Test A postemergence, giant foxtail; conditions: postemergence, 0 to 100 scale, 0 is no effect, 100 is complete control, approximately 10 days
# Summary of the method: as §2
# [7] = tested on: pigweed (Amaranthus retroflexus); assay: Test A preemergence, pigweed; conditions: Preemergence, 0 to 100 scale (0 no effect, 100 complete control)
# Summary of the method: as §2
# [8] = tested on: barnyardgrass (Echinochloa crus-galli); assay: Test A preemergence, barnyardgrass; conditions: Preemergence, 0 to 100 scale (0 no effect, 100 complete control)
# Summary of the method: as §2
# [9] = tested on: ryegrass, Italian (Italian ryegrass, Lolium multiflorum); assay: Test A preemergence, Italian ryegrass; conditions: Preemergence, 0 to 100 scale (0 no effect, 100 complete control)
# Summary of the method: as §2
# [10] = tested on: sedge, umbrella (small-flower umbrella sedge, Cyperus difformis); assay: Test B flooded paddy test, umbrella sedge; conditions: 250 g ai/ha, Flood; visual rating after 13 to 15 days; scale 0 to 100, 0 is no effect, 100 is complete control
# Summary of the method: as §1
# rice (Oryza sativa) = assay: Test B flooded paddy test, rice; conditions: 250 g ai/ha, Flood; visual rating after 13 to 15 days; scale 0 to 100, 0 is no effect, 100 is complete control
# Summary of the method: as §1
# [11] = tested on: ryegrass, Italian (Italian ryegrass, Lolium multiflorum); assay: Test A postemergence, Italian ryegrass; conditions: postemergence, 0 to 100 scale, 0 is no effect, 100 is complete control, approximately 10 days
# Summary of the method: as §2
# kochia (Kochia scoparia) [12] = assay: Test A postemergence, kochia; conditions: postemergence, 0 to 100 scale, 0 is no effect, 100 is complete control, approximately 10 days
# Summary of the method: as §2
# [13] = tested on: wheat (Triticum aestivum); assay: Test A postemergence, wheat; conditions: postemergence, 0 to 100 scale, 0 is no effect, 100 is complete control, approximately 10 days
# Summary of the method: as §2
# [14] = tested on: blackgrass (Alopecurus myosuroides); assay: Test A postemergence, blackgrass; conditions: postemergence, 0 to 100 scale, 0 is no effect, 100 is complete control, approximately 10 days
# Summary of the method: as §2
# [15] = tested on: foxtail, giant (giant foxtail, Setaria faberii); assay: Test A preemergence, giant foxtail; conditions: Preemergence, 0 to 100 scale (0 no effect, 100 complete control)
# Summary of the method: as §2
# [16] = tested on: pigweed (Amaranthus retroflexus); assay: Test A postemergence, pigweed; conditions: postemergence, 0 to 100 scale, 0 is no effect, 100 is complete control, approximately 10 days
# Summary of the method: as §2
# [17] = tested on: ducksalad (Heteranthera limosa); assay: Test B flooded paddy test, ducksalad; conditions: 250 g ai/ha, Flood; visual rating after 13 to 15 days; scale 0 to 100, 0 is no effect, 100 is complete control
# Summary of the method: as §1
# corn (Zea mays) = assay: Test A postemergence, corn; conditions: postemergence, 0 to 100 scale, 0 is no effect, 100 is complete control, approximately 10 days
# Summary of the method: as §2
# kochia (Kochia scoparia) [18] = assay: Test A preemergence, kochia; conditions: Preemergence, 0 to 100 scale (0 no effect, 100 complete control)
# Summary of the method: as §2
Compound,"Plant response rating, Barnyardgrass [1]","Plant response rating, Galium ([2]; 31 g ai/ha)","Plant response rating, Galium ([2]; 125 g ai/ha)","Plant response rating, Ragweed ([3]; 31 g ai/ha)","Plant response rating, Ragweed ([3]; 125 g ai/ha)","Plant response rating, Barnyardgrass ([4]; 31 g ai/ha)","Plant response rating, Barnyardgrass ([4]; 125 g ai/ha)","Plant response rating, Ragweed ([5]; 31 g ai/ha)","Plant response rating, Ragweed ([5]; 125 g ai/ha)","Plant response rating, Foxtail, Giant ([6]; 31 g ai/ha)","Plant response rating, Foxtail, Giant ([6]; 125 g ai/ha)","Plant response rating, Pigweed ([7]; 31 g ai/ha)","Plant response rating, Pigweed ([7]; 125 g ai/ha)","Plant response rating, Barnyardgrass ([8]; 31 g ai/ha)","Plant response rating, Barnyardgrass ([8]; 125 g ai/ha)","Plant response rating, Ryegrass, Italian ([9]; 31 g ai/ha)","Plant response rating, Ryegrass, Italian ([9]; 125 g ai/ha)","Plant response rating, Sedge, Umbrella [10]","Plant response rating, Rice (rice (Oryza sativa))","Plant response rating, Ryegrass, Italian ([11]; 31 g ai/ha)",also measured
Cc1cccc(Oc2ncc(Cl)cn2)c1OCCC(F)(F)F [Compound 64],0,0,0,0,0,0,10,0,0,0,10,0,100,10,60,0,0,90,20,0,"Plant response rating, Ryegrass, Italian ([11]; 125 g ai/ha): 0; Plant response rating, Kochia (kochia (Kochia scoparia) [12]; 31 g ai/ha): 10; Plant response rating, Kochia (kochia (Kochia scoparia) [12]; 125 g ai/ha): 20; Plant response rating, Wheat ([13]; 31 g ai/ha): 0; Plant response rating, Wheat ([13]; 125 g ai/ha): 0; Plant response rating, Blackgrass ([14]; 31 g ai/ha): 0; Plant response rating, Blackgrass ([14]; 125 g ai/ha): 10; Plant response rating, Foxtail, Giant ([15]; 31 g ai/ha): 0; Plant response rating, Foxtail, Giant ([15]; 125 g ai/ha): 20; Plant response rating, Pigweed ([16]; 31 g ai/ha): 20; Plant response rating, Pigweed ([16]; 125 g ai/ha): 30; Plant response rating, Ducksalad [17]: 85; Plant response rating, Corn (corn (Zea mays); 31 g ai/ha): 0; Plant response rating, Corn (corn (Zea mays); 125 g ai/ha): 10; Plant response rating, Kochia (kochia (Kochia scoparia) [18]; 31 g ai/ha): 0; Plant response rating, Kochia (kochia (Kochia scoparia) [18]; 125 g ai/ha): 0"
FCCCOc1c(I)cccc1Oc1ncc(Cl)cn1 [Compound 66],0,40,90,0,0,0,50,0,0,10,30,70,100,20,70,0,10,100,20,0,"Plant response rating, Ryegrass, Italian ([11]; 125 g ai/ha): 20; Plant response rating, Kochia (kochia (Kochia scoparia) [12]; 31 g ai/ha): 90; Plant response rating, Kochia (kochia (Kochia scoparia) [12]; 125 g ai/ha): 100; Plant response rating, Wheat ([13]; 31 g ai/ha): 0; Plant response rating, Wheat ([13]; 125 g ai/ha): 0; Plant response rating, Blackgrass ([14]; 31 g ai/ha): 10; Plant response rating, Blackgrass ([14]; 125 g ai/ha): 30; Plant response rating, Foxtail, Giant ([15]; 31 g ai/ha): 50; Plant response rating, Foxtail, Giant ([15]; 125 g ai/ha): 100; Plant response rating, Pigweed ([16]; 31 g ai/ha): 90; Plant response rating, Pigweed ([16]; 125 g ai/ha): 100; Plant response rating, Ducksalad [17]: 100; Plant response rating, Corn (corn (Zea mays); 31 g ai/ha): 0; Plant response rating, Corn (corn (Zea mays); 125 g ai/ha): 30; Plant response rating, Kochia (kochia (Kochia scoparia) [18]; 31 g ai/ha): 0; Plant response rating, Kochia (kochia (Kochia scoparia) [18]; 125 g ai/ha): 60"
